# Test results published in ChEMBL document CHEMBL3627650, “Design, synthesis, and evaluation of new endomorphin analogs with enhanced central antinociception after peripheral administration” (Bioorg Med Chem Lett, 2015).
# Active and inactive are the calls of the source. The rule behind the calls is not given here.
# Experiments:
# [1] = test system: Mus musculus; test: Antinociceptive activity in mouse acute phase inflammatory pain model assessed as inhibition of formalin-induced licking/biting behavior at 4 mg/kg, iv; assay type: functional, organism-based
# [2] = test system: Mus musculus; test: Antinociceptive activity in mouse assessed as inhibition of tail flick at 2 to 20 nmol, icv measured up to 30 mins relative to control; assay type: functional
# [3] = test system: Mus musculus; test: Antinociceptive activity in mouse assessed as inhibition of tail flick at 4 mg/kg, iv measured at 5 to 60 mins; assay type: functional, organism-based
# [4] = test system: Mus musculus; test: Antinociceptive activity in mouse prolonged tonic phase inflammatory pain model assessed as inhibition of formalin-induced licking/biting behavior at 4 mg/kg, iv; assay type: functional, organism-based
# [5] = test system: Mus musculus; test: Antinociceptive activity in mouse assessed as inhibition of tail flick at 2 to 20 nmol, icv measured after 30 mins; assay type: functional, organism-based
# [6] = test system: Mus musculus; test: Antinociceptive activity in mouse assessed as inhibition of tail flick at 16 mg/kg, iv in presence of opioid receptor antagonist naloxone; assay type: functional, organism-based
# [7] = test system: Mus musculus; test: Antinociceptive activity in mouse prolonged tonic phase inflammatory pain model assessed as inhibition of formalin-induced licking/biting behavior at 16 mg/kg, iv in presence of opioid receptor antagonist naloxone; assay type: functional, organism-based
# [8] = test system: Mus musculus; test: Antinociceptive activity in mouse assessed as inhibition of tail flick at 16 mg/kg, iv in presence of opioid receptor antagonist naloxone methiodide; assay type: functional, organism-based
# [9] = biological target: T1, Mu-type opioid receptor (Homo sapiens, UniProt P35372); test: Agonist activity at mu opioid receptor (unknown origin) transfected in HEK293 cells assessed as inhibition of forskolin-stimulated cAMP production; assay type: functional, cell-based
# [10] = test system: Mus musculus; test: Antinociceptive activity in iv dosed mouse acute phase inflammatory pain model assessed as inhibition of formalin-induced licking/biting behavior; assay type: functional, organism-based
# [11] = biological target: T1, Mu-type opioid receptor; test: Displacement of [3H]-DAMGO from mu opioid receptor (unknown origin) transfected in HEK293 cells; assay type: cell-based
# [12] = test system: Mus musculus; test: Antinociceptive activity in mouse assessed as inhibition of tail flick at 2 to 20 nmol, icv; assay type: functional, organism-based; conditions: TDE = time-dependent effect
# [13] = test system: Mus musculus; test: Antinociceptive activity in icv dosed mouse assessed as inhibition of tail flick measured at 5 to 60 mins; assay type: functional; conditions: for ED50: central
# [14] = test system: Mus musculus; test: Antinociceptive activity in mouse assessed as inhibition of tail flick at 20 nmol, icv in presence of opioid receptor antagonist naloxone; assay type: functional, organism-based
# [15] = test system: Mus musculus; test: Antinociceptive activity in iv dosed mouse prolonged tonic phase inflammatory pain model assessed as inhibition of formalin-induced licking/biting behavior; assay type: functional, organism-based
# [16] = test system: Mus musculus; test: Antinociceptive activity in mouse acute phase inflammatory pain model assessed as inhibition of formalin-induced licking/biting behavior at 16 mg/kg, iv in presence of opioid receptor antagonist naloxone; assay type: functional, organism-based
# [17] = biological target: Delta-type opioid receptor (Homo sapiens, UniProt P41143); test: Displacement of [3H]-DPDPE from delta opioid receptor (unknown origin) transfected in HEK293 cells; assay type: cell-based
# [18] = test system: Mus musculus; test: Antinociceptive activity in mouse assessed as inhibition of tail flick at 4 to 16 mg/kg, iv measured at 60 mins relative to control; assay type: functional
# [19] = species on record: Homo sapiens; test: Selectivity ratio of Ki for delta opioid receptor (unknown origin) to Ki for mu opioid receptor (unknown origin)
# [20] = test system: Mus musculus; test: Antinociceptive activity in mouse assessed as inhibition of tail flick at 16 mg/kg, iv measured at 5 to 60 mins relative to control; assay type: functional
# [21] = test system: Mus musculus; test: Antinociceptive activity in iv dosed mouse assessed as inhibition of tail flick measured at 5 to 60 mins; assay type: functional, organism-based
# T1 sequence (P35372 whole entry): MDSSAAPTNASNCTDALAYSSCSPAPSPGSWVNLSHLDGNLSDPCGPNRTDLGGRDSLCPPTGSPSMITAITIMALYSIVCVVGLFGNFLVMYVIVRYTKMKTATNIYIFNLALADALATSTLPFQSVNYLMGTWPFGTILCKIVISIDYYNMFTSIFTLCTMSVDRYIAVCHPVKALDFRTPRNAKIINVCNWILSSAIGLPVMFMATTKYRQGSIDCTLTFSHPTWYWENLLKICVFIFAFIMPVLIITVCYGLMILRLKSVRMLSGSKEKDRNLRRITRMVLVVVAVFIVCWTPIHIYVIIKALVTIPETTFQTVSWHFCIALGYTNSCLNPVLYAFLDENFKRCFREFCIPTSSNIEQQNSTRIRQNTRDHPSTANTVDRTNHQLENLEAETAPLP
# Sequence of Delta-type opioid receptor (P41143 whole entry): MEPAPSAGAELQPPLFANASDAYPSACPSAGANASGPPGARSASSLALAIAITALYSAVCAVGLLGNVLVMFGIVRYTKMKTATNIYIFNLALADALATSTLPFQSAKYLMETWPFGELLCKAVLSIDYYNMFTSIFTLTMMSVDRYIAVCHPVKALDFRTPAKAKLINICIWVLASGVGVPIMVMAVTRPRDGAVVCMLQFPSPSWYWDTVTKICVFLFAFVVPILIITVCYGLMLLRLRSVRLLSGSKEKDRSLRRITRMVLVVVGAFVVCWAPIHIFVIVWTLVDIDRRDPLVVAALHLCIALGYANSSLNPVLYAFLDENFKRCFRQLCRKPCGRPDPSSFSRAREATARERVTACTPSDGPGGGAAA
SMILES,Activity [6],Activity [7],Activity [8],EC50 [9] [nM],Emax [9] [%],Activity [10],Ki [11] [nM],Activity [12],Activity [13],ED50 [13] [µmol/kg],Activity [14],Activity [15],Activity [16],Ki [17] [µM],MPE [18] [%],Ratio Ki [19],MPE [20] [%],Activity [21],also measured
NC(=O)[C@H](Cc1ccccc1)NC(=O)[C@H](Cc1c[nH]c2ccccc12)NC(=O)[C@@H]1CCCN1C(=O)[C@@H](N)Cc1ccc(O)cc1 [ENDOMORPHIN-1],,,,,,,,,,,,,,,,,,,Activity [1]: inactive; MPE [2]: 52.1%; Activity [3]: inactive; Activity [4]: inactive; Activity [5]: inactive
C=C(C(N)=O)[C@H](NC(=O)[C@H](Cc1c[nH]c2ccccc12)NC(=O)[C@@H]1CCCN1C(=O)[C@@H](N)Cc1ccc(O)cc1)c1ccsc1,inactive,inactive,Active,0.0643,97,Dose-dependent effect,0.515,tde,Dose-dependent effect,0.00223,inactive,Dose-dependent effect,inactive,13.3,25,25800,89.8,Dose-dependent effect,
C=C(C(N)=O)[C@H](NC(=O)[C@H](Cc1c[nH]c2ccccc12)NC(=O)[C@@H]1CCCN1C(=O)[C@@H](N)Cc1ccc(O)cc1)c1cccs1,inactive,inactive,Active,0.0629,98.2,Dose-dependent effect,0.565,tde,Dose-dependent effect,0.00207,inactive,Dose-dependent effect,inactive,12,25,21300,86.6,Dose-dependent effect,
